Measurements taken from patent publication US11358933B2, “Compounds and methods for inhibiting CYP26 enzymes” (Queen's University at Kingston, priority 2017, dated 2022).

Key:
[1] = system: Cyp26a1-luc construct in MCF-7 cells; assay: Retinoid activity assay, Cyp26a1-luc reporter in MCF-7 cells; assay type: cell-based; conditions: for Rel. Luciferase Activity (mean): 24 hours, firefly relative to Renilla luciferase
Source text: This retinoid activity assay measures the ability of test compounds to induce expression of a transiently transfected RA sensitive reporter construct. In this assay, MCF-7 cells are transfected with a construct comprising an upstream promoter of the CYP26A1 gene containing 2 RA response elements driving expression of firefly luciferase (pCYP26A1-luc). Since CYP26A1 is highly inducible by RA in these cells, this construct serves as a sensitive reporter of retinod-like transcriptional activity.
MCF-7 cells were maintained in a RPMI-1640 medium containing 10% FBS. Exponentially growing cells were harvested by incubation in trypsin. Cells were then collected and plated in 24-well plates at 50,000 cells/well. Once cells reached 80-90% confluence (e.g., the next day), cells were transfected with two plasmids. The first plasmid was CYP26A1-luc construct (375 ng). The second plasmid was a control plasmid comprising the Renilla luciferase gene driven by constitutive thymidine kinase promoter (pRL-tk) (25 ng). Transfection was performed using FuGene 6 transfection reagent (Promega) with a 1:3 ratio of DNA:FuGene. 24 hours after transfection, cells were treated with test compounds diluted in DMSO in triplicate at 0.1, 1 and 10 μM final concentrations. As a positive control for reporter activation, cells were also treated with RA diluted in DMSO at the same concentrations listed above. DMSO treatment alone served as a negative control. After 24 hours of treatment, cells were harvested in passive lysis buffer (Promega) and luciferase activity in cell lysates were read using a luminometer. Data are expressed as the activity of firefly luciferase relative to Renilla luciferase (see Tables 3-5). For CYP26A1 inhibitor compounds, no activation of the reporter was detected, while the related retinoid-like compound induces luciferase expression.

[2] = system: mouse OP9 bone marrow stromal cells; assay: RA metabolism by OP9 bone marrow stromal cells; assay type: cell-based
Experimental: These experiments are to assess the ability of primary cells, or cell lines to metabolize RA, and to determine the effect of inhibition of CYP26A1 or CYP26B1 on this ability. For these experiments, cells are plated into 48-well plates and treated with a radiolabeled (^3H) RA. The extent of conversion of this labeled RA to water soluble metabolites is determined as above for in the cell-based inhibitor assay. Primary human bone marrow stromal cells (available from Lonza) were cultured in MyeloCult (available from Stem Cell Technologies, Vancouver, Canada). Mouse OP9 bone marrow stromal cells and MC3T3 pre-osteoblasts were cultured as above. Cells are plated in the appropriate culture medium and allowed to form a monolayer. Cells are then pre-treated with either DMSO (vehicle control) or RA (1 μM) for 24 hours to induce CYP26 expression. Vehicle, and RA induced cells are then exposed to ^3H-RA in the presence or absence of test CYP26 inhibitor to examine the effects on RA metabolism. Cells are incubated for 3 hours with labeled RA, and metabolites extracted and analyzed as above.

With `CC(C)(C)c1cccc(-c2cc3cc(/C=C/C(=O)O)ccc3[nH]2)c1` [Compound 026] the “Agonist activity in luciferase reporter transactivation experiment” value [1] was “did not show agonist activity”, the “Rel. Luciferase Activity (mean)” value ([1]; 0.1 μM) was “.0522” and the “Rel. Luciferase Activity (mean)” value ([1]; 1 μM) was “.0472”. For the same compound, the “Rel. Luciferase Activity (mean)” value ([1]; 10 μM) was “.0678” and the “RA metabolism, basal and RA-induced” value [2] was “efficiently blocked basal and RA-induced RA metabolism”.
